Measured values taken from US20190330197A1, “SUBSTITUTED NAPHTHALENE DIIMIDES AND THEIR USE” (UCL Business PLC, priority 2015, published 2019).

Assays:
[1] = test system: Mia-PaCa2 (pancreatic cancer) cells; assay: SRB growth inhibition, MiaPaCa2; assay type: cell-based, human; settings: 96 hr, SRB assay; read-out: short-term 96 hr IC50 MiaPaCa2
Method: (§1) Human cancer cell lines and the somatic human cell line WI-38 (lung fibroblast) were purchased from the American Type Culture Collection. Cell lines were maintained in appropriate medium supplemented with 10% foetal bovine serum (Invitrogen, UK), 2 mM L-glutamine (Invitrogen, Netherlands), and other components as specified by the suppliers. Cell lines were maintained at 37° C., 5% CO2 and routinely passaged. Drugs were dissolved in DMSO and filtered through 0.22 μm pore-size filter units before addition to cell line appropriate media. Cellular growth inhibition was measured using the sulforhodamine B (SRB) assay in 96 well plates. Fifty percent inhibitory concentrations (IC50) were determined by taking the mean absorbance at 540 nm for each drug concentration expressed as a percentage of the absorbance of untreated control wells.

MCF7 (breast) cells = assay: SRB growth inhibition, MCF7; assay type: cell-based, human; settings: 96 hr, SRB assay; read-out: short-term 96 hr IC50 MCF7
Method: as §1

[2] = test system: Panc1 (pancreatic cancer) cells; assay: SRB growth inhibition, Panc1; assay type: cell-based, human; settings: 96 hr, SRB assay; read-out: short-term 96 hr IC50 Panc1
Method: as §1

[3] = test system: WI38 (lung fibroblast) cells; assay: SRB growth inhibition, WI38; assay type: cell-based, human; settings: 96 hr, SRB assay; read-out: short-term 96 hr IC50 WI38
Method: as §1

[4] = test system: human telomeric (F21T) G-quadruplex DNA; assay: FRET quadruplex stabilisation assay, F21T; assay type: binding; settings: compound at 1 μM, 60 mM potassium cacodylate buffer pH 7.4
Excerpt: (§2) The ability of the naphthalene diimide compounds to stabilize quadruplex DNA sequences was investigated using a fluorescence resonance energy transfer (FRET) assay modified to be used as a high-throughput screen in a 96-well format. Several quadruplex sequences were studied (including the human telomeric G-quadruplex DNA sequence 5′-FAM-d(GGG[TTAGGG]3)-TAMRA-3′ and the duplex sequence 5′-FAM-d[…]-HEG-[…]-TAMRA-3′ (HEG linker: [(—CH2—CH2—O—)6.
(§3) The labelled oligonucleotides have attached to them the donor fluorophore FAM: 6-carboxyfluorescein and the acceptor fluorophore TAMRA: 6-carboxytetramethylrhodamine. The FRET probe sequences were diluted from stock to the correct concentration (400 nM) in a 60 mM potassium cacodylate buffer (pH 7.4) and then annealed by heating to 85° C. for 10 min, followed by cooling to room temperature in the heating block. The compound was stored as a 10 mM stock solution in DMSO; final solutions (at 2× concentration) were prepared using 10 mM HCl in the initial 1:10 dilution, after which 60 mM potassium cacodylate buffer (pH 7.4) was used in all subsequent steps. The maximum HCl concentration in the reaction volume (at a ligand concentration of 20 μM) is thus 200 μM, well within the range of the buffer used. Relevant controls were also performed to check for interference with the assay. 96-Well plates (MJ Research, Waltham, Mass.) were prepared by aliquoting 50 μl of the annealed DNA into each well, followed by 50 μl of the compound solutions. Measurements were made on a DNA Engine Opticon (MJ Research) with excitation at 450-495 nm and detection at 515-545 nm. Fluorescence readings were taken at intervals of 0.5° C. in the range 30-100° C., with a constant temperature being maintained for 30 s prior to each reading to ensure a stable value. Final analysis of the data was carried out using a script written in the program Origin 7.0 (OriginLab Corp., Northampton, Mass.). The advanced curve-fitting function in Origin 7.0 was used for calculation of ΔTm values. All determinations were performed in triplicate or better. Esds in ΔTm are ±0.1° C.

[5] = test system: ALT (Alternative Lengthening of Telomeres) cell line; assay: SRB growth inhibition, ALT; assay type: cell-based, human; settings: 96 hr, SRB assay; read-out: short-term 96 hr IC50 ALT
Method: as §1

A549 (lung cancer) cells = assay: SRB growth inhibition, A549; assay type: cell-based, human; settings: 96 hr, SRB assay; read-out: short-term 96 hr IC50 A549
Method: as §1

[6] = test system: Hsp90A sequence from the HSP90 promoter; assay: FRET quadruplex stabilisation assay, Hsp90A; assay type: binding; settings: compound at 1 μM, 60 mM potassium cacodylate buffer pH 7.4
Excerpt: as §2, §3

[7] = test system: Kras21 sequence from the promoter region of the kras gene; assay: FRET quadruplex stabilisation assay, Kras21; assay type: binding; settings: compound at 1 μM, 60 mM potassium cacodylate buffer pH 7.4
Excerpt: as §2, §3

[8] = test system: Hsp90B sequence from the HSP90 promoter; assay: FRET quadruplex stabilisation assay, Hsp90B; assay type: binding; settings: compound at 1 μM, 60 mM potassium cacodylate buffer pH 7.4
Excerpt: as §2, §3

`O=C1c2ccc3c4c(c(NCCN5CCCC5)cc(c24)C(=O)N1CCCN1CCOCC1)C(=O)N(CCCN1CCOCC1)C3=O` [Compound 4c, 2,7-bis(3-morpholinopropyl)-4-((2-(pyrrolidin-1-yl)ethyl)amino)benzo[Imn][3,8]phenanthroline-1,3,6,8(2H,7H)-tetraone] gave an IC50 [1] of 12 nM, an IC50 (MCF7 (breast) cells) of 159 nM and an IC50 [2] of 22 nM. For the same molecule, the IC50 [3] was 1190 nM, the “ΔTm F21T” value [4] was 11.8 °C and the IC50 [5] was 93 nM. For the same molecule, the IC50 (A549 (lung cancer) cells) was 24 nM, the “ΔTm Hsp90A” value [6] was 15.7 °C and the “ΔTm Kras21” value [7] was 11.0 °C. The “ΔTm Hsp90B” value [8] was 12.7 °C.
